Test results taken from BindingDB's records for doi:10.1007/bf02245606 (Janssen Research Foundation, 1996).

Experiments:
[1] = target: T1, Alpha-2C adrenergic receptor (Rattus norvegicus, UniProt P22086)
T1 sequence (P22086 whole entry): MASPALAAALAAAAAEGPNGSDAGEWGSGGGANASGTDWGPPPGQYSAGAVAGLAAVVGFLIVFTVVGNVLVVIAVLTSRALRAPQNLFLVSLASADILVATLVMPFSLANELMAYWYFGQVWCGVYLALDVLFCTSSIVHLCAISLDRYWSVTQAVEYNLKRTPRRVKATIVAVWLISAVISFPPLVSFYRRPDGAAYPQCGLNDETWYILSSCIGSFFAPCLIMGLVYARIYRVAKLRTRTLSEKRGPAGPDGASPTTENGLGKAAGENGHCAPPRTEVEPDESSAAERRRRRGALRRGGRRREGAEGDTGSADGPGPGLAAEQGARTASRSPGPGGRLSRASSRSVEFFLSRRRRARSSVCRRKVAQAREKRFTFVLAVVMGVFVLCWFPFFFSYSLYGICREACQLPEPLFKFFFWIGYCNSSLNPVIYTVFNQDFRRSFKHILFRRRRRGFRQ

[2] = target: T2, 5-hydroxytryptamine receptor 1A (Rattus norvegicus, UniProt P19327)
T2 sequence (P19327 whole entry): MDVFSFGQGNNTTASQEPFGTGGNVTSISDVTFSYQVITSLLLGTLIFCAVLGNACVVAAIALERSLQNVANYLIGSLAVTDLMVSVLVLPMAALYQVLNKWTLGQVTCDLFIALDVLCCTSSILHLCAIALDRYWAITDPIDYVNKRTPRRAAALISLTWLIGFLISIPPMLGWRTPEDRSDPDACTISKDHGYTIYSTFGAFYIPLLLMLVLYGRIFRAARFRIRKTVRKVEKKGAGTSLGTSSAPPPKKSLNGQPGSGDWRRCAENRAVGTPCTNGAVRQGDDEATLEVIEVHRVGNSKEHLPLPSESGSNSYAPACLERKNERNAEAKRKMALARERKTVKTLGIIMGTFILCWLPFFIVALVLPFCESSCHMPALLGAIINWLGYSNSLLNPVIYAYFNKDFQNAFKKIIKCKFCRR

Row | SMILES | Ki [1] [nM] | Ki [2] [nM]
1 | NC(=O)C1(N2CCCCC2)CCN(CCCC(=O)c2ccc(F)cc2)CC1 [CAS_1893-33-0] | 680 | 
2 | CN1CC2c3ccccc3Oc3ccc(Cl)cc3C2C1 (stereo not drawn) [NSC_163091] | 3.7 | 
3 | O=C1NCCN1CCN1CCC(c2cn(-c3ccc(F)cc3)c3ccc(Cl)cc23)CC1 [1-[2-[4-[5-chloro-1-(4-fluorophenyl)-indol-3-yl]-1-piperidyl]ethyl]imidazolidin-2-one] | 1680 | 
4 | O=C1NCN(c2ccccc2)C12CCN(CCCC(c1ccc(F)cc1)c1ccc(F)cc1)CC2 | 5000 | 110
5 | O=C1NCN(c2ccccc2)C12CCN(CC1COc3ccccc3O1)CC2 (stereo not drawn) [8-(2,3-Dihydro-benzo[1,4]dioxin-2-ylmethyl)-1-phenyl-1,3,8-triaza-spiro[4.5]decan-4-one] |  | 0.84
6 | Cc1nc2n(c(=O)c1CCN1CCC(c3noc4cc(F)ccc34)CC1)CCCC2O (stereo not drawn) [9-OH-risperidone] | 17 | 380
